ChEMBL document CHEMBL4251690, “Histone Deacetylase Inhibitors as Treatment for Targeting Multiple Components in Cancer Therapy” (ACS Med Chem Lett, 2018)

Tests used:
Assay type in all cases: cell-based
[1] = biological target: T1, Histone-lysine N-methyltransferase EHMT2 (Homo sapiens, UniProt Q96KQ7); experiment: Inhibition of G9a in human MDA-MB-231 cells assessed as reduction in H3K9me2 level after 2 days by immunofluorescence in-cell western analysis
T1 sequence (Q96KQ7 whole entry): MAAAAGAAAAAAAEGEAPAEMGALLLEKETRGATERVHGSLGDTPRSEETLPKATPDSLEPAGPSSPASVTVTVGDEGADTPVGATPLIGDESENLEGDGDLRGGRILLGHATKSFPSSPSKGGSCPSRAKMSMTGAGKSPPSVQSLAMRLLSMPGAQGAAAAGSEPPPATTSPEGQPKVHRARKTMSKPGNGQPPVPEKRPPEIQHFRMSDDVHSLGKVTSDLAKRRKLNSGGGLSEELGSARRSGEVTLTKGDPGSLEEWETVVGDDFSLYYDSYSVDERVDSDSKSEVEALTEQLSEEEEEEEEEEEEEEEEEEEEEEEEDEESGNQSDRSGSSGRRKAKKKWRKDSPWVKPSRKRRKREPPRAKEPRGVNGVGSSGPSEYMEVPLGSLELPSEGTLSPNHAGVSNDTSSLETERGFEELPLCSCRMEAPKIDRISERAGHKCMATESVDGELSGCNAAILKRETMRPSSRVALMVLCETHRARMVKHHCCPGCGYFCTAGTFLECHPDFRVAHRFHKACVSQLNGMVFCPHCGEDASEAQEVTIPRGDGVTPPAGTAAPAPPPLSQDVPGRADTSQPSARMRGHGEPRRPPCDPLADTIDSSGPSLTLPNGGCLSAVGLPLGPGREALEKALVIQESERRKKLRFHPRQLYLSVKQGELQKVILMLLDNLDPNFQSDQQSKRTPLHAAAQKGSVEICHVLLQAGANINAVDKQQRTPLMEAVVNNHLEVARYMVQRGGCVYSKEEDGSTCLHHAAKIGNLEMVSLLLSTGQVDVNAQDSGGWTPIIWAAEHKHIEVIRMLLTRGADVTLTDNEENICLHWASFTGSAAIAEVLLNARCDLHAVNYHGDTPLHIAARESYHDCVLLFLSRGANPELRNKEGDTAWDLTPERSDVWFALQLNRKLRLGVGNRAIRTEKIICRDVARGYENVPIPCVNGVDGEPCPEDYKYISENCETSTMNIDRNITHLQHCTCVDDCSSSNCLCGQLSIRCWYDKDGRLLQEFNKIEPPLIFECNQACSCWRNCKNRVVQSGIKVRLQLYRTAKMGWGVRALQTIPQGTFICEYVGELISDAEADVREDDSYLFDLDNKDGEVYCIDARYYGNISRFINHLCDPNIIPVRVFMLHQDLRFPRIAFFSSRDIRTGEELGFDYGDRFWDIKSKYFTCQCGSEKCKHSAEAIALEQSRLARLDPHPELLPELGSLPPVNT

Histone deacetylase [2] = experiment: Inhibition of HDAC in human HeLa cells using Boc-K(Ac)-AMC as substrate by fluorescence assay
Histone deacetylase [3] = experiment: Inhibition of HDAC in human A549 cells using Boc-K(Ac)-AMC as substrate by fluorescence assay
Histone deacetylase [4] = experiment: Inhibition of HDAC in human K562 cells using Boc-K(Ac)-AMC as substrate by fluorescence assay

SMILES	IC50 [1] [µM]	IC50 (Histone deacetylase [2]) [µM]	IC50 (Histone deacetylase [3]) [µM]	IC50 (Histone deacetylase [4]) [µM]
CNC(=O)CCCCC(=O)NCCNc1nc(NC2CCN(C)CC2)c2ccc(OC)cc2n1	47	–	–	–
COc1ccc2c(NC3CCN(Cc4ccccc4)CC3)nc(NCCNC(=O)CCCCCCC(=O)NO)nc2c1	–	15.33	> 100	27.75
COc1ccc2c(NCCNC(=O)CCCCCCC(=O)NO)nc(N3CCCN(C)CC3)nc2c1	–	> 100	> 100	> 100
COc1ccc2c(NC3CCN(Cc4ccccc4)CC3)nc(NCCNC(=O)CCCCCC(=O)NO)nc2c1	–	13.8	> 100	5.735
